In patent publication US20250270159A1, “1-(CYCLOBUTANEMETHYLIDENE)-2, 4, 5-TRIMETHOXYBENZENE COMPOUND AND PREPARATION METHOD AND USE THEREOF” (CHENGDU XINRUI TAIKANG TECHNOLOGY CO., LTD., priority 2023, published 2025):

System: ischemic stroke induced by the filament technique in rats
Assay: Long-term ischemic stroke (MCAO), bonding (adhesive tape) test
Format: in vivo
Details: for Time for rats to perceive tape, Day 1 / Time for rats to perceive tape, Day 4 / Time for rats to perceive tape, Day 7 / Time for rats to perceive tape, Day 10 / Time for rats to perceive tape, Day 14 / Time of removing tape, Day 1 / Time of removing tape, Day 4 / Time of removing tape, Day 7 / Time of removing tape, Day 10 / Time of removing tape, Day 14: cut-off 60 s
Description: The rats were randomly divided into a sham operation group (Sham group, given a blank emulsion with a volume equal to that of the high-dose CTMB group), a model group (Vehicle group, given a blank emulsion with a volume equal to that of the high-dose CTMB group), a low-dose CTMB group (CTMB-L group, 10 mg/kg), a high-dose CTMB group (CTMB-H group, 20 mg/kg), and an edaravone dexborneol injection concentrated solution group (EDB group, commercially available, 3 mg/kg). 10 rats were included in each group, which were administered by intraperitoneal injection. It should be noted that in the experiment, the mode of administration for rats was intraperitoneal injection, and a ratio of the effective dose of CTMB, the active ingredient in the emulsion injection, to the unit mass of the human body was within a range of 0.2 mg-4.0 mg/kg, which referred to the ratio of the effective dose of CTMB, the active ingredient in the emulsion injection, to the unit mass of the human body during intravenous infusion, which was extrapolated from the effective dose of the rats. Considering the different bioavailability, peak concentration, and peak time of the drug due to different species and different modes of administration, the effective dose of the active ingredient CTMB in the emulsion injection to the unit mass of human body was finally determined to be 0.2 mg-4.0 mg/kg through conversion.
The rats were fasted for 12 h before procedure, and the rats were anesthetized with 10% chloral hydrate (350 mg/kg, i.p.). The rats were fixed in the supine position, and the body temperature was maintained at about 37° C. For neck preparation, a median neck incision was made, the muscle and fascia were separated along the inner edge of the sternocleidomastoid muscle to expose the right side, the common carotid artery (CCA), external carotid artery (ECA), and internal carotid artery (ICA) were separated bluntly, and the lines were disposed of proximally in the CCA proximal end, ICA, and ECA for backup. The CCA proximal end and ECA were ligatured, and an arterial clip was used to temporarily close the ICA, then a small hole was poked at a position of CCA having about 4 mm from the bifurcation with a needle. The filament was inserted into the ICA through the CCA, the arterial clipped on ICA was loosened, and the filament was slowly advanced. When the mark on the filament reached the bifurcation and a slight resistance was felt, the thin wire at ICA was tightened, and saline was used to clean the wound and then suture was performed. The sham procedure was the same as the experimental group except that no filament was inserted. After anesthesia, the rats were raised normally.
Rats were trained in adhesion experiments for one week before modeling, and those that could successfully tear off the tape within 10 s were screened for modeling. After 2 h of modeling by the filament technique, the rats were immediately administered with the drug according to the grouped administration plan. Thereafter, the rats were continued to be administered with the drug once a day for 14 days, and adhesion experiments were performed on days 1, 4, 7, 10, and 14 to assess sensory and motor nerve function. The specific operation was as follows. A circular tape with a diameter of about 12 mm was adhered to the plantar surface of the left forelimb of the rat, and the sensation and removal time of the tape was recorded. If the mice were unable to perceive and/or remove the tape within 60 s, 60 s were recorded.

COc1cc(OC)c(OC)cc1C=C1CCC1 [CTMB, 1-(cyclobutylidenemethyl)-2,4,5-trimethoxybenzene]
toxic side effects associated with administration (10 and 20 mg/kg ip once a day for 14 days, bonding test): No toxic side effects
Time for rats to perceive tape, Day 1 (CTMB-H 20 mg/kg ip once a day): 31.17 ± 24.57^#^ s
Time for rats to perceive tape, Day 4 (CTMB-H 20 mg/kg ip once a day): 25.33 ± 23.41^#^ s
Time for rats to perceive tape, Day 7 (CTMB-H 20 mg/kg ip once a day): 20.50 ± 22.99^#^ s
Time for rats to perceive tape, Day 10 (CTMB-H 20 mg/kg ip once a day): 7.00 ± 4.56 s
Time for rats to perceive tape, Day 14 (CTMB-H 20 mg/kg ip once a day): 8.44 ± 11.94 s
Time of removing tape, Day 1 (CTMB-H 20 mg/kg ip once a day): 53.67 ± 16.66 s
Time of removing tape, Day 4 (CTMB-H 20 mg/kg ip once a day): 51.33 ± 17.14 s
Time of removing tape, Day 7 (CTMB-H 20 mg/kg ip once a day): 48.67 ± 16.55 s
Time of removing tape, Day 10 (CTMB-H 20 mg/kg ip once a day): 31.11 ± 19.76 s
Time of removing tape, Day 14 (CTMB-H 20 mg/kg ip once a day): 33.22 ± 23.03 s
Time for rats to perceive tape, Day 1 (CTMB-L 10 mg/kg ip once a day): 42.25 ± 25.53 s
Time for rats to perceive tape, Day 4 (CTMB-L 10 mg/kg ip once a day): 27.50 ± 28.05 s
Time for rats to perceive tape, Day 7 (CTMB-L 10 mg/kg ip once a day): 28.20 ± 28.97^#^ s
Time for rats to perceive tape, Day 10 (CTMB-L 10 mg/kg ip once a day): 27.11 ± 30.06 s
Time for rats to perceive tape, Day 14 (CTMB-L 10 mg/kg ip once a day): 10.44 ± 12.44 s
Time of removing tape, Day 1 (CTMB-L 10 mg/kg ip once a day): 50.75 ± 17.65 s
Time of removing tape, Day 4 (CTMB-L 10 mg/kg ip once a day): 36.20 ± 24.17 s
Time of removing tape, Day 7 (CTMB-L 10 mg/kg ip once a day): 38.60 ± 26.15^#, * s
Time of removing tape, Day 10 (CTMB-L 10 mg/kg ip once a day): 26.63 ± 27.80 s
Time of removing tape, Day 14 (CTMB-L 10 mg/kg ip once a day): 26.22 ± 21.48 s
